These results are taken from ChEMBL document CHEMBL2086259, “13,28-Epoxy triterpenoid saponins from Ardisia japonica selectively inhibit proliferation of liver cancer cells without affecting normal liver cells” (Bioorg Med Chem Lett, 2012).

Test [1] in a line: Cytotoxicity against human HL-7702 cells after 72 hrs by MTT assay. The test is classed as cell-based. As to conditions: L02, 72 h.
For a further test, the system named is HepG2. In words: Cytotoxicity against human HepG2 cells after 72 hrs by MTT assay. The test is classed as functional, cell-based. As to conditions: HepG2, 72 h. Background: Formazan colour is commonly taken as a measure of viable cells.
The test system of the next test is Bel-7402. In words: Cytotoxicity against human Bel7402 cells after 72 hrs by MTT assay. The test is classed as functional, cell-based. To be noted: Bel-7402, 72 h.

With `CC1(C)CC[C@]23CO[C@@]4(CC[C@@H]5[C@@]6(C)CC[C@H](O[C@@H]7OC[C@H](O[C@@H]8O[C@H](CO)[C@@H](O)[C@H](O)[C@H]8O)[C@H](O)[C@H]7O[C@@H]7O[C@H](CO)[C@@H](O)[C@H](O)[C@H]7O)C(C)(C)[C@@H]6CC[C@@]5(C)[C@]4(C)C[C@H]2O)[C@@H]3C1`, the values for the concentration for half-maximal inhibition (IC50) (in test [1]; in the test on HepG2; in the test on Bel-7402) were greater than 100 µM, 14.4 µM and 4.18 µM, respectively.
Regarding `C[C@@H]1O[C@@H](O[C@H]2[C@H](O[C@H]3CO[C@@H](O[C@H]4CC[C@]5(C)[C@H]6CC[C@]78OC[C@@]9(CC[C@](C)(C(=O)O)C[C@H]97)C(=O)C[C@@]8(C)[C@]6(C)CC[C@H]5C4(C)C)[C@H](O[C@@H]4O[C@H](CO)[C@@H](O)[C@H](O)[C@H]4O)[C@H]3O)O[C@H](CO)[C@@H](O)[C@@H]2O)[C@H](O)[C@H](O)[C@H]1O`, the IC50 (in test [1]; in the test with HepG2; in the test with Bel-7402) was greater than 100 µM throughout.
On to `COC(OC)[C@@]1(C)CC[C@]23CO[C@@]4(CC[C@@H]5[C@@]6(C)CC[C@H](O[C@@H]7OC[C@H](O[C@@H]8O[C@H](CO)[C@@H](O)[C@H](O)[C@H]8O[C@@H]8O[C@@H](C)[C@H](O)[C@@H](O)[C@H]8O)[C@H](O)[C@H]7O)C(C)(C)[C@@H]6CC[C@@]5(C)[C@]4(C)C[C@H]2O)[C@@H]3C1`, for which the IC50 (in test [1]; with HepG2; in the test with Bel-7402) was greater than 100 µM throughout.
`C[C@@H]1O[C@@H](O[C@H]2[C@H](O[C@H]3CO[C@@H](O[C@H]4CC[C@]5(C)[C@H]6CC=C7[C@@H]8C[C@@](C)(C(=O)O)CC[C@]8(CO)[C@H](O)C[C@@]7(C)[C@]6(C)CC[C@H]5C4(C)C)[C@H](O[C@@H]4O[C@H](CO)[C@@H](O)[C@H](O)[C@H]4O)[C@H]3O)O[C@H](CO)[C@@H](O)[C@@H]2O)[C@H](O)[C@H](O)[C@H]1O`: the half-maximal inhibitory concentration (IC50) (in test [1]; with HepG2; in the test with Bel-7402) was greater than 100 µM each time.
For the molecule `C[C@@H]1O[C@@H](O[C@H]2[C@H](O[C@H]3CO[C@@H](O[C@H]4CC[C@]5(C)[C@H]6CC[C@]78OC[C@@]9(CC[C@](C)(C=O)C[C@H]97)[C@H](O)C[C@@]8(C)[C@]6(C)CC[C@H]5C4(C)C)[C@H](O[C@@H]4O[C@H](CO)[C@@H](O)[C@H](O)[C@H]4O)[C@H]3O)O[C@H](CO)[C@@H](O)[C@@H]2O)[C@H](O)[C@H](O)[C@H]1O` [ARDISIACRISPIN B], the concentration for half-maximal inhibition (IC50) in test [1] is greater than 100 µM; with HepG2 it was 21 µM; in the test with Bel-7402, 4.46 µM.
As for `C[C@@H]1O[C@@H](O[C@H]2[C@H](O[C@H]3CO[C@@H](O[C@H]4CC[C@]5(C)[C@H]6CC=C7[C@@H]8C[C@@](C)(CO)CC[C@]8(CO)[C@H](O)C[C@@]7(C)[C@]6(C)CC[C@H]5C4(C)C)[C@H](O[C@@H]4O[C@H](CO)[C@@H](O)[C@H](O)[C@H]4O)[C@H]3O)O[C@H](CO)[C@@H](O)[C@@H]2O)[C@H](O)[C@H](O)[C@H]1O` [ARDISIAMAMILLOSEDE C], the IC50 (in test [1]; in the test on HepG2; in the test on Bel-7402) was greater than 100 µM each time.
As for `C[C@@H]1O[C@@H](O[C@H]2[C@H](O[C@H]3CO[C@@H](O[C@H]4CC[C@]5(C)[C@H]6CC[C@]78OC[C@@]9(CC[C@](C)(C=O)C[C@H]97)C(=O)C[C@@]8(C)[C@]6(C)CC[C@H]5C4(C)C)[C@H](O)[C@H]3O)O[C@H](CO)[C@@H](O)[C@@H]2O)[C@H](O)[C@H](O)[C@H]1O` [ARDISIAMAMILLOSIDE H], the IC50 (in test [1]; with HepG2; in the test with Bel-7402) was greater than 100 µM in each case.

A word on the IC50: it is the concentration at which inhibition is half-maximal. Lower therefore signals greater potency.
